Measurements as given in paper PMC12867150, “A fungi-derived cyclic peptide enhances Th9-mediated antitumor immunity by targeting ZAP70 and SREBP1” (The Journal of Clinical Investigation, 2025).

What was measured:
[1] = tested on: PD-1 on T cells; assay: PD-1 expression on donor Th9 and endogenous CD8+/CD4+ T cells from spleens (S4J-L); type: in vivo, mouse; conditions: for Expression of PD-1 of transferred CD45.1⁺ OT-II Th9 cells in spleen: Supplemental Figure 4J; for Expression of PD-1 of endogenous CD8⁺ T cells in spleen: Supplemental Figure 4K; for Expression of PD-1 of endogenous CD4⁺ T cells in spleen: Supplemental Figure 4L
Protocol: C57BL/6 mice were subcutaneously injected with 5 × 10^5 B16-OVA melanoma cells. Five days after tumor implantation, mice received an intravenous infusion of 2 × 10^6 in vitro–differentiated Th9 cells (cultured for 5 days), which were derived from OT-II CD45.1 donor mice, accompanied by 4 × 10^5 OVA peptide–pulsed DCs via the tail vein. To enhance T cell engraftment and facilitate lymphodepletion, a single intraperitoneal injection of cyclophosphamide (200 mg/kg, Sigma, catalog C0768) was administered 1 day prior to T cell transfer. Mice were euthanized at designated time points for the collection and analysis of spleens, tumor-draining lymph nodes, and tumor tissues.
Details regarding staining panels (human and mouse), reagents (including clones and catalog numbers), acquisition settings, compensation/controls, and analysis procedures are provided in Supplemental Methods.
CD45.1+ T Cells in Tumors
CtrlEpA Ctrl EpA GzmB Ctrl EpA
CtrlEpA CtrlEpA GzmB Ctrl EpA
J CD45.1+ T Cells in Spleens K CD8+ T Cells in Spleens L CD4+ T Cells in Spleens […]
PD-1 0 CtrlEpA PD-1 0 CtrlEpA PD-1 0 CtrlEpA […]
cells and endogenous T cells.
(A–C) Mean fluorescence intensity (MFI) of IFN-γ (A) and TNF-α (B), and representative flow-cytometric plots with quantification of Granzyme B⁺ Perforin⁺ cells (C) among adoptively transferred CD45.1⁺ Th9 cells in tumors. (D–F) MFI of IFN-γ (D) and TNF-α (E), and representative plots with quantification of Granzyme B⁺ Perforin⁺ cells (F) among tumor-infiltrating CD8⁺ T cells. (G–I) MFI of IFN-γ (G) and TNF-α (H), and representative plots with quantification of Granzyme B⁺ Perforin⁺ cells (I) among tumor-infiltrating CD4⁺ T cells. (J–L) PD-1 expression in adoptively transferred CD45.1⁺ Th9 cells (J), endogenous CD8⁺ T cells (K), and endogenous CD4⁺ T cells (L) from spleens of tumor-bearing mice. Data in (A–L) are shown as mean ± SEM from n = 4 mice per group. Statistical analysis was performed using two-tailed unpaired Student’s t-test (A–L). ns, not significant. *p < 0.05, **p […]
(also on this page, place not known: IFN -γ MFIofTNF-α CtrlEpACtrlEpA MFIofIFN-γ 1500MFIofTNF-α MFIofIFN-γ 800MFIofTNF-α CtrlEpA0 CtrlEpA0 CtrlEpA0 MFI of (×103Ď CtrlEpA0 MFI of PD-1 (×103) MFI of PD-1 (×103) CtrlEpAPD-1 HG FE GzmB+ PRF1+ of CD45.1+ cells (%) GzmB+ PRF1+ of CD8+ cells (%) GzmB+ PRF1+ of CD4+ cells (%) PRF1 PRF1 PRF1 0.3887.5 MFIofIFN-γ) […]

[2] = tested on: human Th9 CAR T cells; assay: CAR lentivirus infection efficiency, GFP (S9C); type: cell-based; conditions: representative flow plot, Figure S9C
Text: Ct EpA Fat Fat Ct EpA Fat Fat
(A) Flow-cytometric analysis of intracellular IL-9 expression in human Th9 cells […]
(B) Flow-cytometric assessment of mitochondrial mass using Mito Tracker in human Th9 cells treated as in (A) (n = 3).
(C) Flow-cytometric analysis of infection efficiency in Th9 cells transduced with a CD19-directed CAR lentivirus. (D and E) Flow-cytometric analysis of IL-9 expression in human Th9 CAR-T cells on days 5 and 6 of in vitro differentiation, showing representative plots (D) and quantification (E) (n = 3). (F) Measurement of intracellular ATP levels normalized to cell number in human Th9 CAR-T c e l l s (n =5).
(G) Flow-cytometric analysis of mitochondrial mass using Mito Tracker in human Th9 CAR-T c e l l s (n = 3). (H and I) Flow-cytometric analysis of granzyme B⁺ CAR-Th9 cells isolated from spleens after adoptive transfer, showing representative plots (H) and quantification (I) (n = 5 mice per group). Statistical analysis was performed using one-way ANOVA with Tukey’s post hoc test (A and B), or two-tailed unpaired Student’s t-test (E–G, and I). Repeated data are presented as mean ± SEM. *p < 0.05, […]

## anteiso-C15 Leu7 surfactin [EpA]
[1]; donor Th9 and endogenous T cells, result in words
  PD-1 expression: comparable between groups
[1]; replicate 1
  Expression of PD-1 of transferred CD45.1⁺ OT-II Th9 cells in spleen: 5868
  Expression of PD-1 of endogenous CD8⁺ T cells in spleen: 1931
  Expression of PD-1 of endogenous CD4⁺ T cells in spleen: 6299
[1]; replicate 2
  Expression of PD-1 of transferred CD45.1⁺ OT-II Th9 cells in spleen: 7923
  Expression of PD-1 of endogenous CD8⁺ T cells in spleen: 1939
  Expression of PD-1 of endogenous CD4⁺ T cells in spleen: 5672
[1]; replicate 3
  Expression of PD-1 of transferred CD45.1⁺ OT-II Th9 cells in spleen: 10955
  Expression of PD-1 of endogenous CD8⁺ T cells in spleen: 2374
  Expression of PD-1 of endogenous CD4⁺ T cells in spleen: 6004
[1]; replicate 4
  Expression of PD-1 of transferred CD45.1⁺ OT-II Th9 cells in spleen: 4100
  Expression of PD-1 of endogenous CD8⁺ T cells in spleen: 1655
  Expression of PD-1 of endogenous CD4⁺ T cells in spleen: 4982
[2]
  GFP gate number (infection efficiency): 47.8
